# Assays:
# Type in all cases: in vivo, human
# essential tremor [1] = test: Riboflavin daily in 15 persons over 50 with essential tremor, Fahn-Tolosa-Marin clinical tremor rating; design: key to Tremor Score After Rx, L Hand / Tremor Score After Rx, Head / Tremor Score After Rx, R Hand / Tremor Score After Rx, Hands: 0=Normal; 1=Slight; 2=Moderately abnormal; 3=Markedly abnormal; 4=Severely abnormal; settings: for Tremor Score After Rx, Hands: before Rx Hands 1
# Experimental: (§1) 15 persons over the age of 50 were tested, utilizing daily dosages of between 400 and 800 mg of riboflavin. Riboflavin was the only vitamin used for those patients who were on other tremor medications. These patients were continued on them.
# Patients were evaluated with arms outstretched, elbows bent and hands near the chin, writing with both hands, drinking holding a cup with either hand, and pouring water with either hand. Evaluation was based on a four-point scale as published by Fahn, Tolosa and Marin, Clinical Rating Scale for Tremor in Parkinson's Disease and Movement Disorders [Williams and Wilkins, 1993].
# [2] = Side effects in the 15-person riboflavin test
# Experimental: as §1
# essential tremor [3] = test: Riboflavin daily in 15 persons over 50 with essential tremor, Fahn-Tolosa-Marin clinical tremor rating; settings: 200 mg to 1000 mg of riboflavin on a daily basis
# essential tremor [4] = test: One patient, sequential course of riboflavin with/without coenzyme Q10 and B vitamins, tremor score; design: key to tremor score, Head / tremor score, Right Hand / tremor score, Left Hand: 0=Normal; 1=Slight; 2=Moderately abnormal; 3=Markedly abnormal; 4=Severely abnormal
# Experimental: For one patient, before beginning a course of therapy in accordance with the inventive treatment, that patient's tremor score was Head 0, Right Hand 2, Left Hand 3. Treatment commenced for three months as follows:
# The tremor score, after three months of treatment, improved to Head 0, Right Hand 1, Left Hand 2. Treatment then continued for an additional three months with an increase in the daily dosage of Riboflavin to 800 mg. The tremor score was then measured to be Head 0, Right Hand 0, Left Hand 1. […] Moreover, if treatment was resumed, there was a return to reduced tremor levels after 2 to 3 days.
# [5] = test system: tremor on action and intention due to Depakote; seizures; test: One patient with severe epilepsy and Depakote-induced tremor treated with the inventive vitamin therapy; settings: one patient with severe epilepsy on high dose Depakote
# Source text: Other conditions that are commonly seen in patients with essential tremor, such as deafness, motion sickness, balance difficulties, and cognitive problems may be benefited by this treatment. Additionally, patients who develop tremors due to the use of medications that cause tremor (such as Depakote and Lithium) may benefit by the use of the inventive vitamin therapy. […] Other neurological conditions, such as epilepsy, when associated with tremor, may be benefited by the inventive vitamin therapy.
# [6] = after an additional three months with Riboflavin increased to 800 mg daily, same co-administered vitamins and coenzyme Q10
structure (smiles),measurement,setting,value
"Cc1cc2nc3c(=O)[nH]c(=O)nc-3n(C[C@H](O)[C@H](O)[C@H](O)CO)c2cc1C [Riboflavin, riboflavin]","Tremor Score After Rx, Hands","essential tremor [1]; patient # 1, 400 mg daily, 6 wks., concomitant None",Hands 1
same,"Tremor Score After Rx, Head","essential tremor [1]; patient # 1, 400 mg daily, 6 wks., before Rx Head 2, concomitant tremor medications None",Head 1
same,"Tremor Score After Rx, Hands","essential tremor [1]; patient # 2, 600 mg daily, 3 mos., concomitant None",Hands 1
same,"Tremor Score After Rx, Head","essential tremor [1]; patient # 2, 600 mg daily, 3 mos., before Rx Head 2, concomitant None",Head 1
same,"Tremor Score After Rx, Head","essential tremor [1]; patient # 3, 400 mg daily, 4 wks., before Rx Head 0, concomitant None",Head 0
same,"Tremor Score After Rx, L Hand","essential tremor [1]; patient # 3, 400 mg daily, 4 wks., before Rx L Hand 4, concomitant None",L Hand 3
same,"Tremor Score After Rx, R Hand","essential tremor [1]; patient # 3, 400 mg daily, 4 wks., before Rx R Hand 3, concomitant None",R Hand 2
same,"Tremor Score After Rx, Head","essential tremor [1]; patient # 4, 800 mg daily, 2 wks., before Rx Head 0, concomitant None",Head 0
same,"Tremor Score After Rx, L Hand","essential tremor [1]; patient # 4, 800 mg daily, 2 wks., before Rx L Hand 3, concomitant None",L Hand 2
same,"Tremor Score After Rx, R Hand","essential tremor [1]; patient # 4, 800 mg daily, 2 wks., before Rx R Hand 2, concomitant None",R Hand 2
same,"Tremor Score After Rx, Head","essential tremor [1]; patient # 5, 400 mg daily, 7 mos., before Rx Head 0, concomitant Inderal LA 80 mg.",Head 0
same,"Tremor Score After Rx, L Hand","essential tremor [1]; patient # 5, 400 mg daily, 7 mos., before Rx L Hand 3, concomitant Inderal LA 80 mg.",L Hand 2
same,"Tremor Score After Rx, R Hand","essential tremor [1]; patient # 5, 400 mg daily, 7 mos., before Rx R Hand 2, concomitant Inderal LA 80 mg.",R Hand 2
same,"Tremor Score After Rx, Head","essential tremor [1]; patient # 6, 400 mg daily, 12 mos., before Rx Head 0, concomitant Inderal LA 60",Head 0
same,"Tremor Score After Rx, L Hand","essential tremor [1]; patient # 6, 400 mg daily, 12 mos., before Rx L Hand 2, concomitant Inderal LA 60",L Hand 1
same,"Tremor Score After Rx, R Hand","essential tremor [1]; patient # 6, 400 mg daily, 12 mos., before Rx R Hand 2, concomitant Inderal LA 60",R Hand 1
same,"Tremor Score After Rx, Head","essential tremor [1]; patient # 7, 400 mg daily, 4 wks., before Rx Head 0, concomitant None",Head 0
same,"Tremor Score After Rx, L Hand","essential tremor [1]; patient # 7, 400 mg daily, 4 wks., before Rx L Hand 2, concomitant None",L Hand 1
same,"Tremor Score After Rx, R Hand","essential tremor [1]; patient # 7, 400 mg daily, 4 wks., before Rx R Hand 2, concomitant None",R Hand 1
same,"Tremor Score After Rx, Head","essential tremor [1]; patient # 8, 600 mg daily, 4 wks., before Rx Head 0, concomitant Topamax",Head 0
same,"Tremor Score After Rx, L Hand","essential tremor [1]; patient # 8, 600 mg daily, 4 wks., before Rx L hand 4, concomitant Topamax",L Hand 3
same,"Tremor Score After Rx, R Hand","essential tremor [1]; patient # 8, 600 mg daily, 4 wks., before Rx R hand 4, concomitant Topamax",R Hand 3
same,"Tremor Score After Rx, Head","essential tremor [1]; patient # 9, 400 mg daily, 4 wks., before Rx Head 0, concomitant Mysoline, Inderal and Topamax",Head 0
same,"Tremor Score After Rx, L Hand","essential tremor [1]; patient # 9, 400 mg daily, 4 wks., before Rx L Hand 4, concomitant Mysoline, Inderal and Topamax",L hand 3
same,"Tremor Score After Rx, R Hand","essential tremor [1]; patient # 9, 400 mg daily, 4 wks., before Rx R Hand 4, concomitant Mysoline, Inderal and Topamax",R Hand 4
same,"Tremor Score After Rx, Head","essential tremor [1]; patient # 10, 800 mg daily, 4 mos., before Rx Head 0, concomitant Mysoline, Inderal and Topamax",Head 0
same,"Tremor Score After Rx, L Hand","essential tremor [1]; patient # 10, 800 mg daily, 4 mos., before Rx L Hand 3, concomitant Mysoline, Inderal and Topamax",L Hand 2
same,"Tremor Score After Rx, R Hand","essential tremor [1]; patient # 10, 800 mg daily, 4 mos., before Rx R Hand 4, concomitant Mysoline, Inderal and Topamax",R Hand 4
same,"Tremor Score After Rx, Head","essential tremor [1]; patient # 11, 400 mg daily, 1 year, before Rx Head 2, concomitant None",Head 1
same,"Tremor Score After Rx, L Hand","essential tremor [1]; patient # 11, 400 mg daily, 1 year, before Rx L Hand 2, concomitant None",L Hand 1
same,"Tremor Score After Rx, R Hand","essential tremor [1]; patient # 11, 400 mg daily, 1 year, before Rx R Hand 2, concomitant None",R Hand 1
same,"Tremor Score After Rx, Head","essential tremor [1]; patient # 12, 400 mg daily, 2 wks., before Rx Head not given, concomitant None",Head 2
same,"Tremor Score After Rx, L Hand","essential tremor [1]; patient # 12, 400 mg daily, 2 wks., before Rx L Hand not given, concomitant None",L Hand 2
same,"Tremor Score After Rx, R Hand","essential tremor [1]; patient # 12, 400 mg daily, 2 wks., before Rx R hand 2, concomitant None",R Hand 1
same,"Tremor Score After Rx, Head","essential tremor [1]; patient # 13, 400 mg daily, 3 wks., before Rx Head 0, concomitant None",Head 0
same,"Tremor Score After Rx, L Hand","essential tremor [1]; patient # 13, 400 mg daily, 3 wks., before Rx L Hand 2, concomitant None",L Hand 1
same,"Tremor Score After Rx, R Hand","essential tremor [1]; patient # 13, 400 mg daily, 3 wks., before Rx R Hand 2, concomitant None",R Hand 1
same,"Tremor Score After Rx, Head","essential tremor [1]; patient # 14, 400 mg daily, 5 mos., before Rx Head 0, concomitant None",Head 0
same,"Tremor Score After Rx, L Hand","essential tremor [1]; patient # 14, 400 mg daily, 5 mos., before Rx L Hand 2, concomitant None",L Hand 1
same,"Tremor Score After Rx, R Hand","essential tremor [1]; patient # 14, 400 mg daily, 5 mos., before Rx R Hand 2, concomitant None",R Hand 1
same,"Tremor Score After Rx, Head","essential tremor [1]; patient # 15, 400 mg daily, 1 mo., before Rx Head 0, concomitant None",Head 0
same,"Tremor Score After Rx, R Hand","essential tremor [1]; patient # 15, 400 mg daily, 1 mo., before Rx R Hand 1, concomitant None",R Hand 1
same,symptoms after stopping daily intake,essential tremor [1]; within a few days of stopping the daily high dosage of riboflavin,the symptoms of essential tremor returned
same,side effect,[2]; general statement on the treatment,bright yellow urine
same,Side Effects,"[2]; patient # 1, 400 mg daily, 6 wks.",None
same,Side Effects,"[2]; patient # 2, 600 mg daily, 3 mos.",None
same,Side Effects,"[2]; patient # 3, 400 mg daily, 4 wks.",None
same,Side Effects,"[2]; patient # 4, 800 mg daily, 2 wks.",None
same,Side Effects,"[2]; patient # 5, 400 mg daily, 7 mos., concomitant Inderal LA 80 mg.",None
same,Side Effects,"[2]; patient # 6, 400 mg daily, 12 mos., concomitant Inderal LA 60",None
same,Side Effects,"[2]; patient # 7, 400 mg daily, 4 wks.",None
same,Side Effects,"[2]; patient # 8, 600 mg daily, 4 wks., concomitant Topamax",None
same,Side Effects,"[2]; patient # 9, 400 mg daily, 4 wks., concomitant Mysoline, Inderal and Topamax",None
same,Side Effects,"[2]; patient # 10, 800 mg daily, 4 mos., concomitant Mysoline, Inderal and Topamax",None
same,Side Effects,"[2]; patient # 11, 400 mg daily, 1 year",None
same,Side Effects,"[2]; patient # 12, 400 mg daily, 2 wks.",None
same,Side Effects,"[2]; patient # 13, 400 mg daily, 3 wks.",None
same,Side Effects,"[2]; patient # 14, 400 mg daily, 5 mos.",None
same,Side Effects,"[2]; patient # 15, 400 mg daily, 1 mo.",None
same,effect on symptoms of essential tremor,essential tremor [3],ameliorates the symptoms of essential tremor
same,head and hand findings following treatment,essential tremor [4]; additional three months with just daily Riboflavin (800 mg) and coenzyme Q10 (1000 mg),stable head and hand findings
same,"tremor score, Head",essential tremor [4]; [6],0
same,"tremor score, Left Hand",essential tremor [4]; [6],1
same,"tremor score, Right Hand",essential tremor [4]; [6],0
same,"tremor score, Head","essential tremor [4]; after three months of daily Riboflavin 400 mg + Coenzyme Q10 1000 mg + Thiamine 50 mg + Niacin 50 mg + Pantothenic Acid 50 mg, before Head 0",0
same,"tremor score, Left Hand","essential tremor [4]; after three months of daily Riboflavin 400 mg + Coenzyme Q10 1000 mg + Thiamine 50 mg + Niacin 50 mg + Pantothenic Acid 50 mg, before Left Hand 3",2
same,"tremor score, Right Hand","essential tremor [4]; after three months of daily Riboflavin 400 mg + Coenzyme Q10 1000 mg + Thiamine 50 mg + Niacin 50 mg + Pantothenic Acid 50 mg, before Right Hand 2",1
same,head and hand findings,essential tremor [4]; thereafter a year with just Riboflavin 800 mg daily,stable head and hand findings
same,tremor when treatment was missed,essential tremor [4]; treatment missed for two days or more,prior untreated levels of tremor returned
same,seizure frequency,[5],decreased
same,tremor on action and intention,[5],significantly improved

# Reference: patent publication US20070031394A1, “Method of treating neurological disorders” (priority 2005, published 2007)
